Columns and labels:
HCT-116 cells [1] = test: Test for inhibiting sphere-forming ability of cancer cells; format: cell-based; details: HCT-116 spheres, non-adherent, serum-free, 4 days, CellTiter-Glo, read-out: IC50 (Sphere IC50 value; concentration for 50% inhibition of cell proliferation)
Experimental: (§1) The reliable methods established for measuring the self-renewal ability of cells which is one of the CSC's properties include a method for measuring the sphere-forming ability of cancer cells in non-adherent condition in the absence of serum (Cancer Res 65, 5506-5511 (2005)). HCT-116 cells were available from the American Type Culture Collection (ATCC). HCT-116 cells were cultured at 37° C. and 5% CO2 using the McCoy's 5a medium containing 10% fetal bovine serum (FBS) and 1% penicillin/streptomycin. HCT-116 cells were seeded in a 384 Well Black Clear Bottom Ultra-Low Attachment Microplate (Corning Cat. No. 3827) in an amount of 350-800 cells/well using the DMEM/F12 medium containing 2% B27 supplement (GIBCO), 20 ng/mL epidermal growth factor (EGF) (peprotech), 10 ng/mL basic fibroblast growth factor (bFGF) (peprotech), 5 μg/mL insulin (Sigma), and 1% penicillin/streptomycin. The test compounds were added into each well to adjust the final concentration of DMSO to 0.1%, and the cells were cultured for 4 days. The number of viable cells in each well was then measured with CellTiter-Glo® Luminescent Cell Viability Assay (Promega) to calculate the concentration of each test compound for 50% inhibition of cell proliferation (Sphere IC50 value; μmol/L).
The experiment of Test Example 1 was performed for the compounds of each Example. The concentrations of each test compound for 50% inhibition of cell profeliration (Sphere IC50 value; μmol/L) are shown in the following Table.

HCT-116 cells [2] = test: Test for inhibiting sphere-forming ability of cancer cells (in the presence of BSA); format: cell-based; details: HCT-116 spheres, non-adherent, 5% BSA, 4 days, CellTiter-Glo, read-out: IC50 (Sphere IC50 value; concentration for 50% inhibition of cell proliferation)
Experimental: as §1, with “HCT-116” for “The reliable methods established for measuring the self-renewal ability of cells which is one of the CSC's properties include a method for measuring the sphere-forming ability of cancer cells in non-adherent condition in the absence of serum (Cancer Res 65, 5506-5511 (2005)). HCT-116”, “(Sigma), 5% bovine serum albumin (BSA),” for “(Sigma),”
The experiment of Test Example 2 was performed for the compounds of each Example. The concentrations of each test compound for 50% inhibition of cell profeliration (Sphere IC50 value; μmol/L) are shown in the following Table.

| IC50 (HCT-116 cells [1]; Homo sapiens, 96 h) [nM] | IC50 (HCT-116 cells [2]; Homo sapiens, HCT-116, 96 h) [nM] | IC50 (HCT-116 cells [1]) [nM] | IC50 (HCT-116 cells [2]) [nM] | SMILES |
| --- | --- | --- | --- | --- |
| 90 | 170 | – | – | O=C(Nc1cn(Cc2ccc(C(F)(F)F)cc2)cn1)c1cnc2c(c1)CCNC2 [Example 64, N-{1-[4-(trifluoromethyl)benzyl]-1H-imidazol-4-yl}-5,6,7,8-tetrahydro-1,7-naphthyridine-3-carboxamide] |
| 60 | 60 | – | – | O=C(Nc1cn(Cc2ccc(Cl)c(Cl)c2)cn1)c1ccc2c(c1)CCNC2 [Example 102, N-[1-(3,4-dichlorobenzyl)-1H-imidazol-4-yl]-1,2,3,4-tetrahydroisoquinoline-6-carboxamide] |
| 80 | 50 | – | – | O=C(Nc1cn(Cc2cc(F)cc(F)c2)cn1)c1cnc2c(c1)CCNC2 [Example 47, N-[1-(3,5-difluorobenzyl)-1H-imidazol-4-yl]-5,6,7,8-tetrahydro-1,7-naphthyridine-3-carboxamide] |
| 820 | 660 | – | – | O=C(Nc1cn(Cc2cccc(Cl)c2)cn1)c1ccc2c(c1)CCNC2 [Example 45] |
| – | – | 600 | 580 | O=C(Nc1cn(Cc2ccc(Cl)cc2)cn1)c1ccc2c(c1)CCNC2 [Example 87] |
| 60 | 70 | – | – | O=C(Nc1cn(Cc2cc(Cl)cc(OC(F)(F)F)c2)cn1)c1ccc2c(c1)CCNC2 [Example 100, N-{1-[3-chloro-5-(trifluoromethoxy)benzyl]-1H-imidazol-4-yl}-1,2,3,4-tetrahydroisoquinoline-6-carboxamide] |
| 660 | 490 | – | – | O=C(Nc1cc2c(cc1F)CNCC2)c1cn(Cc2ccc(F)c(F)c2)cn1 [Example 2] |
| 60 | 200 | – | – | O=C(Nc1cn(Cc2cc(Br)cc(Br)c2)cn1)c1ccc2c(c1)CCNC2 [Example 96] |
| – | – | 370 | 60 | O=C(Nc1cn(Cc2ccc(F)cc2)cn1)c1cnc2c(c1)CCNC2 [Example 61] |
| 780 | 580 | – | – | O=C(Nc1cn(Cc2cccc(Cl)c2)cn1)c1ccc2c(n1)CCNC2 [Example 44] |
| – | – | 180 | 80 | COc1cccc(Cn2cnc(NC(=O)c3cnc4c(c3)CCNC4)c2)c1 [Example 58] |
| 90 | 440 | – | – | O=C(Nc1cn(Cc2cc(F)c(F)c(F)c2)cn1)c1cc2c(cn1)CNCC2 [Example 8, N-[1-(3,4,5-trifluorobenzyl)-1H-imidazol-4-yl]-5,6,7,8-tetrahydro-2,7-naphthyridine-3-carboxamide] |
| 710 | 6340 | – | – | O=C(/C=C/c1ccc2c(c1)CCNC2)Nc1cn(Cc2cc(F)c(F)c(F)c2)cn1 [Example 112] |
| – | – | 560 | 650 | Cc1ccc(Cn2cnc(NC(=O)c3cnc4c(c3)CCNC4)c2)cc1 [Example 68] |
| < 10 | 70 | – | – | O=C(Nc1cn(Cc2ccc(Cl)c(C(F)(F)F)c2)cn1)c1ccc2c(c1)CCNC2 [Example 93, N-{1-[4-chloro-3-(trifluoromethyl)benzyl]-1H-imidazol-4-yl}-1,2,3,4-tetrahydroisoquinoline-6-carboxamide] |
| – | – | 760 | 680 | O=C(Nc1cn(CCCc2ccccc2)cn1)c1cnc2c(c1)CCNC2 [Example 69] |
| < 10 | 30 | – | – | O=C(Nc1cn(Cc2ccc(Cl)c(C(F)(F)F)c2)cn1)c1cnc2c(c1)CCNC2 [Example 54, N-{1-[4-chloro-3-(trifluoromethyl)benzyl]-1H-imidazol-4-yl}-5,6,7,8-tetrahydro-1,7-naphthyridine-3-carboxamide] |
| 70 | 70 | – | – | O=C(Nc1cn(Cc2cccc(OC(F)(F)F)c2)cn1)c1cnc2c(c1)CCNC2 [Example 49, N-{1-[3-(trifluoromethoxy)benzyl]-1H-imidazol-4-yl}-5,6,7,8-tetrahydro-1,7-naphthyridine-3-carboxamide] |
| 60 | 60 | – | – | O=C(Nc1cn(Cc2cc(F)cc(C(F)(F)F)c2)cn1)c1ccc2c(c1)CCNC2 [Example 99, N-{1-[3-fluoro-5-(trifluoromethyl)benzyl]-1H-imidazol-4-yl}-1,2,3,4-tetrahydroisoquinoline-6-carboxamide] |
| 620 | 720 | – | – | O=C(Nc1cn(Cc2cccc(C(F)(F)F)c2)cn1)c1cc2c(s1)CNCC2 [Example 17] |

| IC50 (HCT-116 cells [1]; Homo sapiens, 96 h) [nM] | IC50 (HCT-116 cells [2]; Homo sapiens, HCT-116, 96 h) [nM] | IC50 (HCT-116 cells [1]) [nM] | IC50 (HCT-116 cells [2]) [nM] | SMILES |
| --- | --- | --- | --- | --- |
| – | – | 610 | 540 | O=C(Nc1cn(Cc2ccc(F)c(F)c2)cn1)c1ccc2c(c1)CCNC2 [Example 73] |
| 690 | 6010 | – | – | O=C(Nc1cn(Cc2cccc(C(F)(F)F)c2)cn1)c1ccc2c(c1)CCCN2 [Example 27] |
| 910 | 790 | – | – | O=C(/C=C/c1ccc2c(c1)OCCO2)Nc1cn(Cc2cccc(Cl)c2)cn1 [Example 39] |
| 390 | 610 | – | – | O=C(Nc1cn(Cc2cc(F)c(F)c(F)c2)cn1)c1cc2c(cc1F)CNCC2 [Example 7] |
| 60 | 60 | – | – | O=C(Nc1cn(Cc2cc(F)cc(Cl)c2)cn1)c1cnc2c(c1)CCNC2 [Example 52, N-[1-(3-chloro-5-fluorobenzyl)-1H-imidazol-4-yl]-5,6,7,8-tetrahydro-1,7-naphthyridine-3-carboxamide] |
| – | – | 610 | 590 | O=C(Nc1cn(CC2CCCCC2)cn1)c1ccc2c(c1)CCNC2 [Example 85] |
| 70 | 640 | – | – | O=C(Nc1cn(Cc2cccc(Oc3ccccc3)c2)cn1)c1ccc2c(c1)CCNC2 [Example 89, N-[1-(3-phenoxybenzyl)-1H-imidazol-4-yl]-1,2,3,4-tetrahydroisoquinoline-6-carboxamide] |
| – | – | 610 | 370 | O=C(Nc1cn(Cc2ccccc2)cn1)c1cnc2c(c1)CCNC2 [Example 59] |
| – | – | 680 | 590 | Cc1ccccc1Cn1cnc(NC(=O)c2ccc3c(c2)CCNC3)c1 [Example 76] |
| 70 | 60 | – | – | O=C(Nc1cn(Cc2cc(Cl)cc(Cl)c2)cn1)c1ccc2c(c1)CCNC2 [Example 101, N-[1-(3,5-dichlorobenzyl)-1H-imidazol-4-yl]-1,2,3,4-tetrahydroisoquinoline-6-carboxamide] |
| – | – | 250 | 100 | Cc1ccccc1Cn1cnc(NC(=O)c2cnc3c(c2)CCNC3)c1 [Example 60] |
| 200 | 580 | – | – | Cc1nc(NC(=O)c2ccc3c(c2)CCNC3)cn1Cc1cccc(C(F)(F)F)c1 [Example 22] |
| – | – | 950 | 6220 | Cc1ccc(Cn2cnc(NC(=O)c3ccc4c(c3)CCNC4)c2)cc1 [Example 81] |
| 680 | 580 | – | – | O=C1CCc2cc(C(=O)Nc3cn(Cc4cccc(C(F)(F)F)c4)cn3)ccc2C1 [Example 110, 6-Oxo-N-{1-[3-(trifluoromethyl)benzyl]-1H-imidazol-4-yl}-5,6,7,8-tetrahydronaphthalene-2-carboxamide] |
| – | – | 720 | 540 | O=C(Nc1cn(Cc2ccc(C(F)(F)F)cc2)cn1)c1ccc2c(c1)CCNC2 [Example 83] |
| 80 | 60 | – | – | O=C(Nc1cn(Cc2ccc(F)c(F)c2)cn1)c1cnc2c(c1)CCNC2 [Example 48, N-[1-(3,4-difluorobenzyl)-1H-imidazol-4-yl]-5,6,7,8-tetrahydro-1,7-naphthyridine-3-carboxamide] |
| – | – | 3590 | 710 | N#Cc1cccc(Cn2cnc(NC(=O)c3cnc4c(c3)CCNC4)c2)c1 [Example 63] |
| 660 | 560 | – | – | O=C(Nc1ccc2c(c1)CCNC2)c1cn(Cc2cc(F)c(F)c(F)c2)cn1 [Example 4, N-(1,2,3,4-tetrahydroisoquinolin-6-yl)-1-(3,4,5-trifluorobenzyl)-1H-imidazole-4-carboxamide] |
| 690 | 980 | – | – | O=C(Nc1cn(Cc2cccc(C(F)(F)F)c2)cn1)c1ccc2c(c1)CCC(O)C2 (stereo not drawn) [Example 111, 6-Hydroxy-N-{1-[3-(trifluoromethyl)benzyl]-1H-imidazol-4-yl}-5,6,7,8-tetrahydronaphthalene-2-carboxamide] |
